Laboratory results from ChEMBL document CHEMBL1142640, “New natural product isolation and comparison of the secondary metabolite content of three distinct samples of the sea hare Aplysia dactylomela from tenerife” (J Nat Prod, 2000).
≈ marks a conversion by molar mass, not a printed value. Calls of active or inactive are those of the source. The calls are words filed in the database; no cut-off is given here.

Experiments:
[1] = system: Microbotryum violaceum; experiment: Antifungal activity against Microbotryum violaceae at 50 ug/disk; assay type: functional
[2] = system: Aspergillus pseudoglaucus; experiment: Antifungal activity against Eurotium repens at 50 ug/disk; assay type: functional
[3] = system: Fusarium oxysporum; experiment: Antifungal activity against Fusarium oxysporum at 50 ug/disk; assay type: functional
[4] = system: [Chlorella] fusca; experiment: Antialgal activity against Chlorella fusca assessed as no colonies of test organism growing within inhibition zone at 50 ug/disk; assay type: functional; details: Scenedesmus fuscus; read-out: IZ
[5] = system: Artemia salina; experiment: (§1) Toxicity in Artemia salina at 0.5 mg/mL after 48 hrs; assay type: organism-based; details: in vivo, 48 h
[6] = Cytotoxicity against human HMO2 cells; assay type: functional, cell-based
[7] = system: HepG2; experiment: Cytotoxicity against human HepG2 cells; assay type: functional, cell-based
[8] = system: MCF7; experiment: Cytotoxicity against human MCF7 cells; assay type: functional, cell-based
[9] = system: Lu1; experiment: Cytotoxicity against human Lu1 cells; assay type: functional, cell-based
[10] = system: KB; experiment: Cytotoxicity against human KB cells; assay type: functional, cell-based
[11] = system: ZR-75-1; experiment: Cytotoxicity against human ZR-75-1 cells; assay type: functional, cell-based
[12] = Antibacterial activity against Escherichia coli assessed as few colonies of test organism growing within inhibition zone at 50 ug/disk; details: read-out: IZ
[13] = system: Priestia megaterium; experiment: Antibacterial activity against Bacillus megaterium at 50 ug/disk; assay type: functional
[14] = system: Escherichia coli; experiment: Antibacterial activity against Escherichia coli at 50 ug/disk; assay type: functional
[15] = system: Mycotypha microspora; experiment: Antifungal activity against Mycotypha microspora at 50 ug/disk; assay type: functional
[16] = system: [Chlorella] fusca; experiment: Antialgal activity against Chlorella fusca at 50 ug/disk; assay type: functional; details: Scenedesmus fuscus
[17] = system: Aspergillus pseudoglaucus; experiment: Antifungal activity against Eurotium repens assessed as few colonies of test organism growing within inhibition zone at 50 ug/disk; assay type: functional; details: read-out: IZ
[18] = system: [Chlorella] fusca; experiment: Antialgal activity against Chlorella fusca assessed as few colonies of test organism growing within inhibition zone at 50 ug/disk; assay type: functional; details: Scenedesmus fuscus; read-out: IZ
[19] = as §1; assay type: organism-based; details: in vivo, read-out: Activity
[20] = system: HeLa; experiment: Cytotoxicity against human HeLa cells; assay type: functional, cell-based
[21] = system: Caenorhabditis elegans; experiment: Nematicidal activity against Caenorhabditis elegans; assay type: functional, organism-based
[22] = molecular target: Human immunodeficiency virus type 1 reverse transcriptase (Human immunodeficiency virus 1) (UniProt Q72547); experiment: Inhibition of HIV1 reverse transcriptase
[23] = molecular target: Tyrosine-protein kinase Lck (Homo sapiens) (UniProt P06239); experiment: Inhibition of p56lck
[24] = system: Priestia megaterium; experiment: Antibacterial activity against Bacillus megaterium assessed as no colonies of test organism growing within inhibition zone at 50 ug/disk; assay type: functional; details: read-out: IZ
[25] = system: Microbotryum violaceum; experiment: Antifungal activity against Microbotryum violaceae assessed as no colonies of test organism growing within inhibition zone at 50 ug/disk; assay type: functional; details: read-out: IZ
[26] = system: Mycotypha microspora; experiment: Antifungal activity against Mycotypha microspora assessed as few colonies of test organism growing within inhibition zone at 50 ug/disk; assay type: functional; details: read-out: IZ
[27] = Toxicity in Artemia salina at 0.5 mg/mL after 24 hrs; assay type: organism-based; details: in vivo, read-out: Activity

Chain of Tyrosine-protein kinase Lck (Homo sapiens) (P06239 2-509 limits assumed): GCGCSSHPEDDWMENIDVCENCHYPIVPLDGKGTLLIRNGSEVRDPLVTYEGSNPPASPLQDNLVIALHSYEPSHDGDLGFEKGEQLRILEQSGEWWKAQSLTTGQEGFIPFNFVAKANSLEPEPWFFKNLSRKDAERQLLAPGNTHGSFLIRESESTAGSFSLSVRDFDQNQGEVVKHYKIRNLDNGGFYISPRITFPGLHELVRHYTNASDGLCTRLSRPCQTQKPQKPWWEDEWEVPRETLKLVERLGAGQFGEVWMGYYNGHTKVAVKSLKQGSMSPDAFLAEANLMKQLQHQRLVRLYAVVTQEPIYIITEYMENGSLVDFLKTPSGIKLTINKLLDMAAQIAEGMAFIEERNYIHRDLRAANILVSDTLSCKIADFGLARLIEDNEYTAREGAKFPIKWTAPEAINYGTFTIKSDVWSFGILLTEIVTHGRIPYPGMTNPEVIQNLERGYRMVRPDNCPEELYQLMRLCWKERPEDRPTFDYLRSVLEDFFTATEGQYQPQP

For `C[C@](Cl)(/C=C/Br)[C@@H](Cl)/C=C/C(=C\Cl)C(Cl)Cl`, the Activity [1] was “inactive”, the Activity [2] was “inactive” and the Activity [3] was “inactive”. For the same molecule, the zone of inhibition at 50 µg/disc [4] was 1 mm, the Activity [5] was “Not Active” and the IC50 [6] was 1.1 µg/mL (≈ 2.84 µM). It also gave an IC50 [7] of 1 µg/mL (≈ 2.58 µM), an IC50 [8] of 1.5 µg/mL (≈ 3.87 µM) and an IC50 [9] of over 25 µg/mL. For the same molecule, the IC50 [10] was over 25 µg/mL, the IC50 [11] was over 25 µg/mL and the zone of inhibition at 50 µg/disc [12] was 2 mm.

With `CC1(C)C=CC(=O)[C@@](C)([C@H]2CC[C@](C)(Cl)[C@@H](Br)C2)O1` [CAESSPITENONE] the Activity [13] was “inactive”, the Activity [14] was “inactive” and the Activity [1] was “inactive”. For the same molecule, the Activity [2] was “inactive”, the Activity [3] was “inactive” and the Activity [15] was “inactive”. The Activity [16] was “inactive” and the Activity [5] was “Not Active”.

In the case of `C=C[C@@](C)(O)CC[C@H]1[C@](C)(CC[C@H](Br)C(C)(C)Cl)[C@@H]2CC[C@@]1(C)O2` [DACTYLOMELOL], the Activity [13] is reported as “inactive”, the Activity [14] is reported as “inactive” and the Activity [1] is reported as “inactive”. For the same molecule, the Activity [2] was “inactive”, the Activity [3] was “inactive” and the Activity [15] was “inactive”. The Activity [16] was “inactive” and the Activity [5] was “Not Active”.

For `CC1=C([C@H]2CC[C@](C)(Cl)[C@@H](Br)C2)C[C@@H](Br)C(C)(C)O1` [LAUCAPYRANOID A], the Activity [13] was “inactive”, the Activity [14] was “inactive” and the Activity [1] was “inactive”. The Activity [2] was “inactive”, the Activity [3] was “inactive” and the Activity [15] was “inactive”. For the same molecule, the Activity [16] was “inactive” and the Activity [5] was “Not Active”.

In the case of `C=C1C[C@H](OC(C)=O)[C@H](Br)C(C)(C)[C@@]12CC[C@](C)(Br)[C@@H](Cl)C2`, the Activity [13] is reported as “inactive”, the Activity [14] is reported as “inactive” and the Activity [16] is reported as “inactive”. The zone of inhibition at 50 µg/disc [17] was 1 mm, the Activity [5] was “Not Active” and the IC50 [9] was over 25 µg/mL. For the same molecule, the IC50 [10] was over 25 µg/mL and the IC50 [11] was over 25 µg/mL.

With `C=CC(C)(O)CC[C@@H]1C(=C)CC[C@@H]2C(C)(C)[C@H](Br)CC[C@@]12C` (stereo partly specified) [ISOPINNATOL B] the Activity [13] was “inactive”, the Activity [14] was “inactive” and the Activity [1] was “inactive”. The Activity [2] was “inactive”, the Activity [3] was “inactive” and the Activity [16] was “inactive”. The Activity [5] was “Active”, the IC50 [9] was over 25 µg/mL and the IC50 [10] was over 25 µg/mL. It also gave an IC50 [11] of over 25 µg/mL.

With `CC1(C)O[C@](C)([C@H]2CC[C@](C)(Cl)[C@@H](Br)C2)CC[C@H]1Br` [CAESPITANE] the Activity [13] was “inactive”, the Activity [14] was “inactive” and the Activity [1] was “inactive”. For the same molecule, the Activity [2] was “inactive”, the Activity [3] was “inactive” and the zone of inhibition at 50 µg/disc [18] was 1 mm. For the same molecule, the mortality at 48 h, 0.5 mg/mL [19] was 40%, the IC50 [9] was over 25 µg/mL and the IC50 [10] was over 25 µg/mL. The IC50 [11] was over 25 µg/mL.

With `C=C1C[C@H](O)[C@H](Br)C(C)(C)[C@@]12CC[C@](C)(Br)[C@@H](Cl)C2` the IC50 [20] was 10 µg/mL (≈ 24.1 µM), the Activity [13] was “inactive” and the “inhibition zone (IZ)” value [14] was “inactive”. For the same molecule, the “inhibition zone (IZ)” value [1] was “inactive”, the “inhibition zone (IZ)” value [2] was “inactive” and the “inhibition zone (IZ)” value [3] was “inactive”. The “inhibition zone (IZ)” value [15] was “inactive”, the “inhibition zone (IZ)” value [16] was “inactive” and the “inhibition zone (Toxicity)” value [5] was “Not Active”.

With `CC1(C)C[C@@H](Br)C[C@](C)(O)[C@@]12C=C/C(=C/Br)CC2` the Activity [21] was “Active”, the Activity [22] was “inactive” and the Activity [23] was “inactive”. It also gave an IC50 [20] of 4.5 µg/mL (≈ 11.9 µM), a zone of inhibition at 50 µg/disc [24] of 1 mm and a zone of inhibition at 50 µg/disc [25] of 3 mm. The Activity [16] was “inactive”, the zone of inhibition at 50 µg/disc [17] was 2 mm and the zone of inhibition at 50 µg/disc [26] was 1 mm. For the same molecule, the mortality at 24 h, 0.5 mg/mL [27] was 100%, the IC50 [6] was 17 µg/mL (≈ 45 µM) and the IC50 [7] was under 1 µg/mL. It also gave an IC50 [8] of under 1 µg/mL, an IC50 [9] of over 25 µg/mL and an IC50 [10] of over 25 µg/mL. For the same molecule, the IC50 [11] was over 25 µg/mL.

`Clc1ccc(COC(Cn2ccnc2)c2ccc(Cl)cc2Cl)c(Cl)c1` (stereo unspecified) [MICONAZOLE] gave a zone of inhibition at 50 µg/disc ([13]; read-out: IZ) of 10 mm, a zone of inhibition at 50 µg/disc ([14]; read-out: IZ) of 1 mm and a zone of inhibition at 50 µg/disc ([1]; read-out: IZ) of 20 mm. For the same molecule, the zone of inhibition at 50 µg/disc ([2]; read-out: IZ) was 3 mm, the zone of inhibition at 50 µg/disc ([3]; read-out: IZ) was 32 mm and the zone of inhibition at 50 µg/disc ([15]; read-out: IZ) was 5 mm. For the same molecule, the zone of inhibition at 50 µg/disc ([16]; read-out: IZ) was 4 mm.
